Measured values taken from US20100304380A1, “Quantitative DNA Methylation Imaging of Cells and Tissues” (EPILUMINA, INC., priority 2009, published 2010).

Experiments:
[1] = test system: AtT20 mouse pituitary tumor cells; assay: Quantitative DNA Methylation (MeC) Imaging of nuclear MeC/DAPI colocalization; type: cell-based; conditions: treated AtT20 cells in culture versus untreated cells (tight colocalization); FIG. 3
Description: Approximately 55% of the human genome is comprised of heterochromatin. […] Therefore, we used the genome and its 3D organization as an indicator to evaluate the effect of demethylating drugs on cancer cells in situ. Our approach provides a statistical measurement on the two classes of DNAs (MeC and DAPI-positive gDNA) as nuclear targets. The algorithm compares the relative distribution of signals derived from these two targets (from two color-channels), projects them onto scatter plots (FIGS. 3 and 4), and then measures the degree of similarities between the plotted signal distributions of cells within a population. This method offers a way to evaluate cellular response to external factors such as drugs and changes in culture conditions via dissimilarity assessment of relevant cellular structures. […] This method considers the strength of statistical evaluation of intra-nuclear MeC/DAPI patterns, especially valuable when cell population homogeneity is difficult to be assessed due to lack of standardized reference and sample size.
FIG. 1 is a workflow of Quantitative DNA Methylation (MeC) Imaging comprised of three steps: (1) immunofluorescence with antibodies against MeC (and against a cell-type or cell-characteristic marker) and DNA counterstaining with DAPI, (2) high-resolution fluorescence microscopy to collect 2D optical sections of the cells, and (3) 3D fluorescence image analysis. […]

[2] = test system: TtT-GF mouse folliculostellate pituitary cell nuclei; assay: Quantitative DNA Methylation Imaging of nuclear MeC/DAPI colocalization; type: cell-based; conditions: 100 nM, 24 hours, TtT-GF cells in culture; selected cells 1-5; FIG. 4
Description: Therefore, we used the genome and its 3D organization as an indicator to evaluate the effect of demethylating drugs on cancer cells in situ. Our approach provides a statistical measurement on the two classes of DNAs (MeC and DAPI-positive gDNA) as nuclear targets. The algorithm compares the relative distribution of signals derived from these two targets (from two color-channels), projects them onto scatter plots (FIGS. 3 and 4), and then measures the degree of similarities between the plotted signal distributions of cells within a population. This method offers a way to evaluate cellular response to external factors such as drugs and changes in culture conditions via dissimilarity assessment of relevant cellular structures. […] This method considers the strength of statistical evaluation of intra-nuclear MeC/DAPI patterns, especially valuable when cell population homogeneity is difficult to be assessed due to lack of standardized reference and sample size. FIG. 1 is a workflow of Quantitative DNA Methylation (MeC) Imaging comprised of three steps: (1) immunofluorescence with antibodies against MeC (and against a cell-type or cell-characteristic marker) and DNA counterstaining with DAPI, (2) high-resolution fluorescence microscopy to collect 2D optical sections of the cells, and (3) 3D fluorescence image analysis. […]

SMILES | change of nuclear DNA methylation patterns (MeC vs heterochromatin/DAPI colocalization) [1] | response (demethylation) of the cell population, MeC vs heterochromatin/DAPI colocalization [2]
Nc1ncn([C@@H]2O[C@H](CO)[C@@H](O)[C@H]2O)c(=O)n1 [5-azacytidine] | large foci that are uniquely comprised of three types of signals/genomic loci | 
C[C@@H](O)[C@@H]1NC(=O)[C@H](CCCCN)NC(=O)[C@@H](Cc2c[nH]c3ccccc23)NC(=O)[C@H](Cc2ccccc2)NC(=O)[C@@H](NC(=O)[C@H](N)Cc2ccccc2)CSSC[C@@H](C(=O)N[C@H](CO)[C@@H](C)O)NC1=O [octreotide] |  | diverse response
